Source: the NIST ThermoML archive (doi:10.1016/j.jct.2013.03.013)

Settings: Liquid, Vibrating wire viscometry

C=C(F)C(F)(F)F [2,3,3,3-tetrafluoro-1-propene]
Settings	viscosity [mPa·s]
243.16 K, 99 kPa	0.2892
243.16 K, 1000 kPa	0.2913
243.16 K, 3000 kPa	0.2982
243.16 K, 5000 kPa	0.3049
243.16 K, 10000 kPa	0.3212
243.16 K, 15000 kPa	0.3397
243.16 K, 20000 kPa	0.3572
243.16 K, 25000 kPa	0.3748
243.16 K, 30000 kPa	0.3927
253.16 K, 151 kPa	0.2554
253.16 K, 1000 kPa	0.258
253.16 K, 3000 kPa	0.2638
253.16 K, 5000 kPa	0.2708
253.16 K, 10000 kPa	0.2877
253.16 K, 15000 kPa	0.3038
253.16 K, 20000 kPa	0.3201
253.16 K, 25000 kPa	0.3362
253.16 K, 30000 kPa	0.3517
263.16 K, 222 kPa	0.2265
263.16 K, 1000 kPa	0.229
263.16 K, 3000 kPa	0.2355
263.16 K, 5000 kPa	0.242
263.16 K, 10000 kPa	0.2581
263.16 K, 15000 kPa	0.2731
263.16 K, 20000 kPa	0.2894
263.16 K, 25000 kPa	0.3035
263.16 K, 30000 kPa	0.3178
273.15 K, 316 kPa	0.2019
273.15 K, 1000 kPa	0.2033
273.15 K, 3000 kPa	0.21
273.15 K, 5000 kPa	0.2162
273.15 K, 10000 kPa	0.2313
273.15 K, 15000 kPa	0.2457
273.15 K, 20000 kPa	0.2601
273.15 K, 25000 kPa	0.2744
273.15 K, 30000 kPa	0.2874
283.14 K, 438 kPa	0.1796
283.14 K, 1000 kPa	0.1815
283.14 K, 3000 kPa	0.1873
283.14 K, 5000 kPa	0.194
283.14 K, 10000 kPa	0.2079
283.14 K, 15000 kPa	0.2222
283.14 K, 20000 kPa	0.2356
283.14 K, 25000 kPa	0.2487
283.14 K, 30000 kPa	0.262
293.15 K, 592 kPa	0.1612
293.15 K, 1000 kPa	0.1636
293.15 K, 3000 kPa	0.169
293.15 K, 5000 kPa	0.1755
293.15 K, 10000 kPa	0.1885
293.15 K, 15000 kPa	0.2018
293.15 K, 20000 kPa	0.2152
293.15 K, 25000 kPa	0.2287
293.15 K, 30000 kPa	0.2414
303.15 K, 784 kPa	0.1425
303.15 K, 1000 kPa	0.1434
303.15 K, 3000 kPa	0.149
303.15 K, 5000 kPa	0.1554
303.15 K, 10000 kPa	0.1696
303.15 K, 15000 kPa	0.1834
303.15 K, 20000 kPa	0.1965
303.15 K, 25000 kPa	0.2092
303.15 K, 30000 kPa	0.2215
313.14 K, 1019 kPa	0.1259
313.14 K, 3000 kPa	0.1324
313.14 K, 5000 kPa	0.1392
313.14 K, 10000 kPa	0.1543
313.14 K, 15000 kPa	0.1681
313.14 K, 20000 kPa	0.1808
313.14 K, 25000 kPa	0.1929
313.14 K, 30000 kPa	0.2046
323.16 K, 1303 kPa	0.1103
323.16 K, 3000 kPa	0.1169
323.16 K, 5000 kPa	0.1239
323.16 K, 10000 kPa	0.1396
323.16 K, 15000 kPa	0.1536
323.16 K, 20000 kPa	0.1664
323.16 K, 25000 kPa	0.1783
323.16 K, 30000 kPa	0.1893
333.16 K, 1643 kPa	0.0965
333.16 K, 3000 kPa	0.1031
333.16 K, 5000 kPa	0.1108
333.16 K, 10000 kPa	0.127
333.16 K, 15000 kPa	0.141
333.16 K, 20000 kPa	0.1537
333.16 K, 25000 kPa	0.1656
333.16 K, 30000 kPa	0.1762
343.16 K, 2046 kPa	0.0832
343.16 K, 3000 kPa	0.0885
343.16 K, 5000 kPa	0.0976
343.16 K, 10000 kPa	0.115
343.16 K, 15000 kPa	0.1291
343.16 K, 20000 kPa	0.1417
343.16 K, 25000 kPa	0.1534
343.16 K, 30000 kPa	0.1644
353.16 K, 2521 kPa	0.0685
353.16 K, 3000 kPa	0.0731
353.16 K, 5000 kPa	0.0846
353.16 K, 10000 kPa	0.1035
353.16 K, 15000 kPa	0.1189
353.16 K, 20000 kPa	0.1314
353.16 K, 25000 kPa	0.1424
353.16 K, 30000 kPa	0.1527
363.16 K, 3081 kPa	0.0521
363.16 K, 5000 kPa	0.0732
363.16 K, 10000 kPa	0.093
363.16 K, 15000 kPa	0.109
363.16 K, 20000 kPa	0.1211
363.16 K, 25000 kPa	0.1322
363.16 K, 30000 kPa	0.1429
